For assay [1], the target named is T1, human vasopressin-1b receptor (hV1bR) (Homo sapiens, UniProt P47901).
T1 construct: host or cells: COS-1
T1 sequence (P47901 1-424): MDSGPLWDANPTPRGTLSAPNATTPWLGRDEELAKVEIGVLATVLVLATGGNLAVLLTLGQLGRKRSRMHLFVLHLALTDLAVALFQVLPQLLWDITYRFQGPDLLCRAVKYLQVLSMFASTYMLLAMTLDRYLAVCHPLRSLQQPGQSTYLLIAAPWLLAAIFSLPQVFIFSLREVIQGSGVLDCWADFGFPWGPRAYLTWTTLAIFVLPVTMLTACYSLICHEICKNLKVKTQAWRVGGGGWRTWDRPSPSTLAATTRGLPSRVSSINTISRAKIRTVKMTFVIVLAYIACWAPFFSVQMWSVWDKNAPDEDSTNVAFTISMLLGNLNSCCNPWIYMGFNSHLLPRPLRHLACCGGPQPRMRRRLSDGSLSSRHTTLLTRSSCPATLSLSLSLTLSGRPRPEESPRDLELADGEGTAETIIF
As to the kind of experiment: cell-based. The format is cell-based.

Assay [2] addresses zebrafish vasopressin1-a2 receptor (ZF V1a2R). The assay is classed as cell-based, zebrafish (Danio rerio).
Assay [3] addresses T2, zebrafish oxytocin/isotocin receptor (ZF oxy/isoR) (Danio rerio, UniProt E4W699).
T2 construct: host or cells: COS-1
T2 sequence (E4W699 1-388): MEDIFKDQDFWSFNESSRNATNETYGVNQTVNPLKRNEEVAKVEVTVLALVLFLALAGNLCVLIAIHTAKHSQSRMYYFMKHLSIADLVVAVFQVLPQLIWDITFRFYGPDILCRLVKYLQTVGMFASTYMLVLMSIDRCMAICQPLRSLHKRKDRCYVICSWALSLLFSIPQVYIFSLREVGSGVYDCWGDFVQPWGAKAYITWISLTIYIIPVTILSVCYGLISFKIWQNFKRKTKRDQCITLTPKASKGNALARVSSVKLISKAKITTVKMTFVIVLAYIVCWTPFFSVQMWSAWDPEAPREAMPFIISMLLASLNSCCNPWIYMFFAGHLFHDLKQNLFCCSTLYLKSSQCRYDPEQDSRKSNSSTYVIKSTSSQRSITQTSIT
As to the kind of experiment: cell-based. The assay is classed as cell-based.

Assay [4] addresses T3, human oxytocin receptor (hOTR) (Homo sapiens, UniProt P30559).
T3 construct: host or cells: COS-1
T3 sequence (P30559 1-389): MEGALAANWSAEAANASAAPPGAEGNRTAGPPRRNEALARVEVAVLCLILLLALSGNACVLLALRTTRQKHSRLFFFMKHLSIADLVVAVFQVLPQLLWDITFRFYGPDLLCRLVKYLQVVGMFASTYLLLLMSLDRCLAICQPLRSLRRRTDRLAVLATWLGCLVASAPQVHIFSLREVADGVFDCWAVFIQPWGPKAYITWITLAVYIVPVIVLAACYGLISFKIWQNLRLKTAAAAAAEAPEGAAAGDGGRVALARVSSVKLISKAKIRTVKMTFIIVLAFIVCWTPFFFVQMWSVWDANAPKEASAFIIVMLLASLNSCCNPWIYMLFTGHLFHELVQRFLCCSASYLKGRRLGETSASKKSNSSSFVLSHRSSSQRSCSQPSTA
As to the kind of experiment: cell-based. The assay is classed as cell-based.

Assay [5] has as its target T4, human vasopressin-1a receptor (hV1aR) (Homo sapiens, UniProt P37288).
T4 construct: host or cells: COS-1
As to the kind of experiment: cell-based.

In assay [6] the target is zebrafish vasopressin1-a1 receptor (ZF V1a1R). The format is cell-based, zebrafish (Danio rerio).
In assay [7] the target is T5, human vasopressin2 receptor (hV2R) (Homo sapiens, UniProt P30518).
T5 construct: host or cells: COS-1
As to the kind of experiment: cell-based.

Assay [8] addresses zebrafish vasopressin2 receptor (ZF V2R). The format is cell-based, zebrafish (Danio rerio). The following applies: for EC50: read-out: Mean EC50 ZF V2R.

Residues, ends and D or L forms follow the SMILES beside them.

T5 sequence (P30518 whole entry): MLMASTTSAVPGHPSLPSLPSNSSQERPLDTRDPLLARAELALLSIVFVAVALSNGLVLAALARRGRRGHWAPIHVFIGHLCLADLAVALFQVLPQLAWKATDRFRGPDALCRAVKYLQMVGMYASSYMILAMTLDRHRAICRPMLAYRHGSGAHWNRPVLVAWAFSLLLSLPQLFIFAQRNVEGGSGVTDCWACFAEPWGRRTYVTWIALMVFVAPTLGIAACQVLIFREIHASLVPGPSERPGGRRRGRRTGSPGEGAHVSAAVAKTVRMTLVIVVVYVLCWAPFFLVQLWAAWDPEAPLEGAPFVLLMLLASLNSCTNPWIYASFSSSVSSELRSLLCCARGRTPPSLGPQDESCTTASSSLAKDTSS
T4 sequence (P37288 whole entry): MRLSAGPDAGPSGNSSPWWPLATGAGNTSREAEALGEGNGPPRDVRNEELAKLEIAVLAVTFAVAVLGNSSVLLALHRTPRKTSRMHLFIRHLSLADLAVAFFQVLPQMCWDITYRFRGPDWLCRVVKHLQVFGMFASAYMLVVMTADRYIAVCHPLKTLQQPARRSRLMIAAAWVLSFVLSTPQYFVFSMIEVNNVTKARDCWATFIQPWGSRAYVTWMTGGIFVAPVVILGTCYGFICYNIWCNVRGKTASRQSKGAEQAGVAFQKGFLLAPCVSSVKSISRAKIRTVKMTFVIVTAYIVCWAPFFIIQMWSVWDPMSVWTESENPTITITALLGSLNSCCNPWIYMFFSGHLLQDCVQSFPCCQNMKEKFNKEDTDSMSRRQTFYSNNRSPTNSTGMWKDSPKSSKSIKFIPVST

Regarding `CC(C)C[C@@H]1NC(=O)[C@H](Cc2ccccc2)NC(=O)[C@@H](N)CSSC[C@@H](C(=O)N2CCC[C@H]2C(=O)N[C@@H](CC(=O)O)C(=O)N[C@@H](CO)C(N)=O)NC(=O)[C@H](CC(N)=O)NC(=O)CNC1=O` [Con-M2am, conopressin-M2] (HELM PEPTIDE1{C.F.L.G.N.C.P.D.S.[am]}$PEPTIDE1,PEPTIDE1,1:R3-6:R3$$$V2.0), the EC50 in assay [1], in assay [2], in assay [3], in assay [4], in assay [5] and in assay [6] was over 100 µM throughout. In addition, the EC50 was over 100 µM in assay [7] and 1.72 µM in assay [8].

Consider `CC[C@H](C)[C@@H]1NC(=O)[C@H](Cc2ccccc2)NC(=O)[C@@H](N)CSSC[C@@H](C(=O)N2CCC[C@H]2C(=O)N[C@@H](CCCCN)C(=O)NCC(N)=O)NC(=O)[C@H](CC(N)=O)NC(=O)[C@H](CCCNC(=N)N)NC1=O` [Con-G, conopressin-G] (HELM PEPTIDE1{C.F.I.R.N.C.P.K.G.[am]}$PEPTIDE1,PEPTIDE1,1:R3-6:R3$$$V2.0), for which, in assay [1], the EC50 was determined as 0.052 µM and the “Selectivity hV1bR” value is listed as “ZF V1a1R (x42.9) > ZF V1a2R (x10.3) > hV1bR (x8.8) > ZF V2R (x7.5) > hV1aR (x3.7) > hV2R (x1.5) > ZF oxy (x1.3) > hOTR”. For the same compound, in assay [2], the “Selectivity ZF V1a2R” value is reported as “ZF V1a1R (x42.9) > ZF V1a2R (x10.3) > hV1bR (x8.8) > ZF V2R (x7.5) > hV1aR (x3.7) > hV2R (x1.5) > ZF oxy (x1.3) > hOTR” and the “response of control at ZF V1a2R (partial agonist)” value turned out to be 69%. In addition, in assay [3], the “Selectivity ZF oxy” value is given as “ZF V1a1R (x42.9) > ZF V1a2R (x10.3) > hV1bR (x8.8) > ZF V2R (x7.5) > hV1aR (x3.7) > hV2R (x1.5) > ZF oxy (x1.3) > hOTR” and the “response of control at ZF oxy/isoR (partial agonist)” value stood at 62%. Also, in assay [4], the “response of control at hOTR (partial agonist)” value came to 28%. Further, in assay [5], the EC50 was 0.123 µM and the “Selectivity hV1aR” value is “ZF V1a1R (x42.9) > ZF V1a2R (x10.3) > hV1bR (x8.8) > ZF V2R (x7.5) > hV1aR (x3.7) > hV2R (x1.5) > ZF oxy (x1.3) > hOTR”. In assay [6], the midpoint of the response, the EC50, lay at 0.01 µM and the “Selectivity ZF V1a1R” value is given as “ZF V1a1R (x42.9) > ZF V1a2R (x10.3) > hV1bR (x8.8) > ZF V2R (x7.5) > hV1aR (x3.7) > hV2R (x1.5) > ZF oxy (x1.3) > hOTR”. In assay [7], the EC50 was 0.3 µM and the “Selectivity hV2R” value was “ZF V1a1R (x42.9) > ZF V1a2R (x10.3) > hV1bR (x8.8) > ZF V2R (x7.5) > hV1aR (x3.7) > hV2R (x1.5) > ZF oxy (x1.3) > hOTR”. In addition, the “Selectivity ZF V2R” value in assay [8] is listed as “ZF V1a1R (x42.9) > ZF V1a2R (x10.3) > hV1bR (x8.8) > ZF V2R (x7.5) > hV1aR (x3.7) > hV2R (x1.5) > ZF oxy (x1.3) > hOTR”.

On to `NC(=O)C[C@@H]1NC(=O)CNC(=O)[C@@H]2CCCN2C(=O)[C@H](Cc2ccccc2)NC(=O)[C@@H](N)CSSC[C@@H](C(=O)N2CCC[C@H]2C(=O)N[C@@H](CC(=O)O)C(=O)N[C@@H](CO)C(N)=O)NC1=O` [Con-M1am, conopressin-M1] (HELM PEPTIDE1{C.F.P.G.N.C.P.D.S.[am]}$PEPTIDE1,PEPTIDE1,1:R3-6:R3$$$V2.0), for which the EC50 in assay [1] was 38.2 µM; in assay [2] it was over 100 µM; in assay [3], over 100 µM; in assay [4], over 100 µM; in assay [5], over 100 µM; in assay [7] it was over 100 µM. The EC50 in assay [8] is over 100 µM. In addition, in assay [1], the “response of control at hV1b (weak and partial agonist)” value was found to be 26%.

As usually defined, the EC50 is the concentration at which the effect is half-maximal.

These data come from PMC7143535, “Synthesis, Pharmacological and Structural Characterization of Novel Conopressins from Conus miliaris” (Marine Drugs, 2020).
